Test results from patent US20210330611A1, “THERAPY FOR NEUROLOGICAL DISEASES/DISORDERS” (priority 2020, published 2021).
Where a name gives a salt, the structure may show the parent alone. Read-outs that look alike come from different tables or passages of the source.

Columns and labels:
primary rat microglia [1] = assay: Cell toxicity (dead cells, size <150 μm2) in coated fibrin (cFib) assay; conditions: primary microglia HTS;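 also: share of dead cells sized under 150 µm2 at 10 µM in fibrin-stimulated microglia HTS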
[2] = test system: fibrin- and LPS-induced microglia activation; assay: cells; format: cell-based, rat
primary rat microglia [3] = test system: primary rat microglia
[4] = test system: LPS-induced microglia activation; assay: Image-based assay of LPS-induced microglia activation (HTS and dose response); format: cell-based, rat; conditions: for inhibition at 10 µM: Rattus norvegicus, Microglia, read-out: LPS % inhibition
[5] = test system: fibrin-induced microglia activation; assay: Image-based assay of fibrin-induced microglia activation (HTS and dose response); format: cell-based, rat; conditions: primary microglia HTS, fibrin stimulation; for inhibition at 10 µM: Rattus norvegicus, Microglia, read-out: Fibrin % inhibition
[6] = fibrin stimulation, cell size <150 μm2 as marker of toxicity
[7] = classification by fibrin and LPS inhibition in HTS
[8] = cell size >800 μm2 as marker of activation
[9] = fibrin assay, dead cells (size <150 μm2), compounds at 10 μM
[10] = classification by fibrin and LPS inhibition, HTS at 10 μM
[11] = primary microglia HTS, LPS stimulation, compounds at 10 μM
[12] = fibrin assay, dead cells (size <150 μm2)
[13] = quadrant by fibrin and LPS inhibition, HTS at 10 μM

| Compound | Fibrin % cell toxicity (primary rat microglia [1]; [9]) [%] | Quadrant (FIG. 5b) [2, 10] | LPS % cell toxicity (primary rat microglia [3]; rat) [%] | inhibition at 10 µM [4, 11] [%] | inhibition at 10 µM ([5]; compounds at 10 μM) [%] | further results |
| --- | --- | --- | --- | --- | --- | --- |
| CCCc1cc(C(N)=S)ccn1 [Protionamide, Ektebin] | – | – | – | – | – | Fibrin % cell toxicity (primary rat microglia [1]; [6]): 1%; Quadrant (FIG. 5b) [2, 7]: Q4; LPS % cell toxicity (primary rat microglia [3]): 0%; LPS % inhibition [4]: 12%; Fibrin % inhibition [5, 8]: −18% |
| CCCCc1ncc(/C=C(\Cc2cccs2)C(=O)O)n1Cc1ccc(C(=O)O)cc1 [Eprosartan] | 1 | Q4 | 0 | -8 | -29 | – |
| O=C1OC2(c3ccccc31)c1cc(I)c(O)c(I)c1Oc1c2cc(I)c(O)c1I [Erythrosine Sodium] | 1 | Q4 | 0 | 0 | 1 | – |
| O=C1c2ccccc2C(=O)C1c1ccccc1 [Phenindione] | – | – | 0 | – | – | Fibrin % cell toxicity (primary rat microglia [1]; [6]): 1%; Quadrant (FIG. 5b) [2, 7]: Q4; inhibition at 10 µM ([4]; 48 h): 0%; inhibition at 10 µM [5, 8]: -10% |
| CCOC(=O)OC(C)OC(=O)[C@@H]1N2C(=O)[C@@H](NC(=O)[C@H](N)c3ccccc3)[C@H]2SC1(C)C (stereo partly shown) [Bacampicillin Hydrochloride] | – | – | 0 | 8 | -12 | Fibrin % cell toxicity (primary rat microglia [1]; [12]): 1%; Quadrant (FIG. 5b) [2, 13]: Q4 |
| Cc1cc(CC(C)CC(C)(C)C)n(O)c(=O)c1.NCCO (stereo not shown) [Piroctone Olamine] | – | – | – | – | – | Fibrin % cell toxicity (primary rat microglia [1]; [6]): 1%; Quadrant (FIG. 5b) [2, 7]: Q4; LPS % cell toxicity (primary rat microglia [3]): 1%; LPS % inhibition [4]: 39%; Fibrin % inhibition [5, 8]: 44% |
| CC1=C(C)C(=O)C(C(CCCCCC(=O)O)c2ccccc2)=C(C)C1=O (stereo not shown) [Seratrodast] | – | – | 0 | – | – | Fibrin % cell toxicity (primary rat microglia [1]; [6]): 1%; Quadrant (FIG. 5b) [2, 7]: Q4; inhibition at 10 µM ([4]; 48 h): 14%; inhibition at 10 µM [5, 8]: 20% |
| CCc1oc2ccccc2c1C(=O)c1cc(Br)c(O)c(Br)c1 [Benzbromarone] | – | – | 1 | 24 | 0 | Fibrin % cell toxicity (primary rat microglia [1]; [12]): 0%; Quadrant (FIG. 5b) [2, 13]: Q4 |
| CN1CC(=O)NC1=N [Creatinine] | 1 | Q4 | 0 | 10 | -3 | – |
| C[C@@H]1CC[C@H]2[C@@H](C)C(=O)O[C@@H]3O[C@@]4(C)CC[C@@H]1[C@]32OO4 [Artemisinin] | – | – | 0 | 12 | -25 | Fibrin % cell toxicity (primary rat microglia [1]; [12]): 0%; Quadrant (FIG. 5b) [2, 13]: Q4 |
| C/C=C(/C(=C/C)c1ccc(O)cc1)c1ccc(O)cc1 [Dienestrol] | 1 | Q4 | 0 | 21 | 17 | – |
| CC(C)(CO)[C@@H](O)C(=O)NCCCO [Dexpanthenol] | 0 | Q4 | 0 | 11 | -1 | – |
| COC(=O)CCc1ccc(OCC(O)CNC(C)C)cc1 (stereo not shown) [Esmolol, Esmolol Hydrochloride] | 1 | Q4 | – | – | – | LPS % cell toxicity (primary rat microglia [3]): 0%; LPS % inhibition [4, 11]: 2%; Fibrin % inhibition ([5]; compounds at 10 μM): −15% |
| C[C@H]1c2cccc(O)c2C(=O)C2=C(O)[C@]3(O)C(=O)C(C(N)=O)=C(O)[C@@H](N(C)C)[C@@H]3[C@@H](O)[C@@H]21 [Doxycycline] | 0 | Q4 | 0 | 18 | -19 | – |
